Measurements as given in the supplement of paper PMC10307832.

Key:
Test in all cases: relative viability (nuclei count vs DMSO), 5 days (fraction); higher = more cells survive
BI-2536 + Navitoclax = compound: CC[C@@H]1C(=O)N(C)c2cnc(Nc3ccc(C(=O)NC4CCN(C)CC4)cc3OC)nc2N1C1CCCC1 [BI-2536] + CC1(C)CCC(c2ccc(Cl)cc2)=C(CN2CCN(c3ccc(C(=O)NS(=O)(=O)c4ccc(N[C@H](CCN5CCOCC5)CSc5ccccc5)c(S(=O)(=O)C(F)(F)F)c4)cc3)CC2)C1 [Navitoclax] (partner 0.5 µM)
Procedure, shortened: (§1)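 Lung cancer cell lines in 1536-well plates were dosed by pin tool the day after seeding, either with one drug alone or with a fixed anchor-drug dose plus five library-drug doses (not always all listed) in √10 steps. After 5 days, cells were fixed and their nuclei stained in one step (final 0.05% Triton X-100, 1% formaldehyde, 1 ug/ml Hoechst), then counted on 4× images. Relative viability is the nuclei count in treated wells divided by that in vehicle wells. Values are medians of duplicate plates.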

BI-2536 + Pictilisib = compound: CC[C@@H]1C(=O)N(C)c2cnc(Nc3ccc(C(=O)NC4CCN(C)CC4)cc3OC)nc2N1C1CCCC1 [BI-2536] + CS(=O)(=O)N1CCN(Cc2cc3nc(-c4cccc5[nH]ncc45)nc(N4CCOCC4)c3s2)CC1 [Pictilisib] (partner 1 µM)
Procedure, shortened: as §1

BI-2536 + Dasatinib = compound: CC[C@@H]1C(=O)N(C)c2cnc(Nc3ccc(C(=O)NC4CCN(C)CC4)cc3OC)nc2N1C1CCCC1 [BI-2536] + Cc1nc(Nc2ncc(C(=O)Nc3c(C)cccc3Cl)s2)cc(N2CCN(CCO)CC2)n1 [Dasatinib] (partner 0.075 µM)
Procedure, shortened: as §1

[1] = compound: CC1CC(=O)N(C2=CN=C(N=C2N1C3CCCC3)NC4=C(C=C(C=C4)C(=O)NC5CCN(CC5)C)OC)C [NPK76-II-72-1] + CC(=O)c1c(C)c2cnc(Nc3ccc(N4CCNCC4)cn3)nc2n(C2CCCC2)c1=O [Palbociclib] (partner 0.5 µM)
Procedure, shortened: as §1

## UMC-11
BI-2536 + Navitoclax; first compound 0.01 µM
  relative viability: 0.279
BI-2536 + Navitoclax; first compound 0.03162 µM
  relative viability: 0.286
BI-2536 + Navitoclax; first compound 0.1 µM
  relative viability: 0.166
BI-2536 + Navitoclax; first compound 0.3162 µM
  relative viability: 0.136
BI-2536 + Navitoclax; first compound 1 µM
  relative viability: 0.112
BI-2536 + Pictilisib; first compound 0.01 µM
  relative viability: 0.851
BI-2536 + Pictilisib; first compound 0.03162 µM
  relative viability: 0.647
BI-2536 + Pictilisib; first compound 0.1 µM
  relative viability: 0.11
BI-2536 + Pictilisib; first compound 0.3162 µM
  relative viability: 0.153
BI-2536 + Pictilisib; first compound 1 µM
  relative viability: 0.14
BI-2536 + Dasatinib; first compound 0.01 µM
  relative viability: 0.432
BI-2536 + Dasatinib; first compound 0.03162 µM
  relative viability: 0.243
BI-2536 + Dasatinib; first compound 0.1 µM
  relative viability: 0.141
BI-2536 + Dasatinib; first compound 0.3162 µM
  relative viability: 0.183
BI-2536 + Dasatinib; first compound 1 µM
  relative viability: 0.158
[1]; first compound 0.01 µM
  relative viability: 0.301
[1]; first compound 0.03162 µM
  relative viability: 0.326
[1]; first compound 0.1 µM
  relative viability: 0.265
[1]; first compound 0.3162 µM
  relative viability: 0.355
[1]; first compound 1 µM
  relative viability: 0.355
